This note sets out measurements from patent publication US20230365582A1, “NOVEL COMPOUNDS HAVING INHIBITORY ACTIVITY ON PROSTAGLANDIN E2 RECEPTOR AND USES THEREOF” (KANAPH THERAPEUTICS INC., priority 2020, published 2023).

The term IC50 denotes the concentration needed to halve the response being measured.

The target in one test is T1, hEP2 (Homo sapiens, UniProt P43116).
T1 construct: expressed in transfected cells; host or cells: HEK293
Put plainly: hEP2 cAMP assay. The test is classed as cell-based. The conditions noted are these: HEK293 cells overexpressing hEP2; PGE2 agonist 400 pM; graded per Table 21; read-out: IC50 (nM) EP2 cAMP. Here is the method: HEK293 cells overexpressing hEP2 were cultured in growth medium (GM: MEM (Gibco™, 11095080)/10% HI FBS (Gibco™, 10082147)/1% penicillin/streptomycin). Before the experiment, the growth medium was removed, and starvation medium (HBSS (Gibco™, 14025076)/10% GM) was added. Thereafter, the cells were incubated for 4 hours. The HEK293 cells harboring hEP2 were detached from the culture dish with a non-enzymatic cell dissociation buffer (Gibco™, 15040066). The cells were resuspended in assay buffer (AB: HBSS, 0.1% BSA stabilizer, 0.5 mM IBMX, 5 mM HEPES).
(§1) 1,000 cells in 5 μL of AB were seeded per well in a 384 well plate (Corning™, 3570), and stock solutions of test compounds were prepared at a concentration of 1 mM in DMSO and serially diluted in DMSO to the concentration required for the inhibition dose response curve (test concentration range of 10 μM-0.001 nM). PGE2 (Sigma, P0409, stock solution: 1 μM) was used as an agonist at a final concentration of 400 pM corresponding to EC50-80. 2.5 μL of the diluted compound and 2.5 μL of PGE2 (400 pM final concentration) were transferred to the assay plate, and then the plate was incubated at room temperature for 12 minutes.
(§2) 5 μL of each donor (Eu-cAMP tracer) and acceptor (ULight-anti-cAMP) was added, and the plate was incubated in the dark for 1 hour at room temperature, and then a Varioskan LUX multimode microplate reader was used to obtain the results (excitation: 334 nm, emission: 615 and 665 nm). The resulting FRET fluorescence value (665 nm/615 nm*10000) was converted and then calculated as a percentage of cAMP relative to the DMSO control value. IC50 values and curves were generated with GraphPad Prism software using log (inhibitor) versus response-variable slopes (4 parameters), and the median of multiple experiments was taken as the experiment result.

In another test the target is T2, hEP4 (Homo sapiens, UniProt P35408).
T2 construct: expressed in transfected cells; host or cells: HEK293
T2 sequence (P35408 whole entry): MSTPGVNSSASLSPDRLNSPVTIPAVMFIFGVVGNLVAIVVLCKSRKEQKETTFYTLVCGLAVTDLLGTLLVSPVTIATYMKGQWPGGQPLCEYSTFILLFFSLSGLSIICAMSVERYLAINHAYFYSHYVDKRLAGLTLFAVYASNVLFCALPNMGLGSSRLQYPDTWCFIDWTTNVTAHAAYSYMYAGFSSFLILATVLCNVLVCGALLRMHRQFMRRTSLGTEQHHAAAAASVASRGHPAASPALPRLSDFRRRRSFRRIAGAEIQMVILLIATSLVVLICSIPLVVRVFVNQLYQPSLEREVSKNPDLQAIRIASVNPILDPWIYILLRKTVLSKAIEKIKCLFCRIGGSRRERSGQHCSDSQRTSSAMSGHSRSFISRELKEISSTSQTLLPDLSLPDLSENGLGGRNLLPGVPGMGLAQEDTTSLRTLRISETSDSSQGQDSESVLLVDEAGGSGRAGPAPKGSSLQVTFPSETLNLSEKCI
Put plainly: hEP4 cAMP assay. The test is classed as cell-based. The conditions noted are these: HEK293 cells overexpressing hEP4; PGE2 agonist 20 nM; graded per Table 21; read-out: IC50 (nM) EP4 cAMP. Here is the method:
HEK293 cells overexpressing hEP4 were cultured in growth medium (GM: MEM (Gibco™, 11095080)/10% HI FBS (Gibco™, 10082147)/1% penicillin/streptomycin). Before the experiment, the growth medium was removed, and starvation medium (HBSS (Gibco™ 14025076)/10% GM) was added. Thereafter, the cells were incubated for 4 hours. HEK293 cells harboring hEP4 were detached from the culture dish with a non-enzymatic cell dissociation buffer (Gibco™, 15040066). The cells were resuspended in assay buffer (AB: HBSS, 0.1% BSA stabilizer, 0.5 mM IBMX, 5 mM HEPES).
as §1, with “plate (Corning®,” for “plate (Corning™,”, “solution: 100” for “solution: 1”, “of 20 nM” for “of 400 pM”, “PGE2 (20 nM” for “PGE2 (400 pM”, “for 18.5” for “for 12”
as §2, with “compared” for “relative”, “slope” for “slopes”
A general note: Changes in cAMP serve as a functional read-out for many G protein-coupled receptors.

T1 sequence (P43116 whole entry): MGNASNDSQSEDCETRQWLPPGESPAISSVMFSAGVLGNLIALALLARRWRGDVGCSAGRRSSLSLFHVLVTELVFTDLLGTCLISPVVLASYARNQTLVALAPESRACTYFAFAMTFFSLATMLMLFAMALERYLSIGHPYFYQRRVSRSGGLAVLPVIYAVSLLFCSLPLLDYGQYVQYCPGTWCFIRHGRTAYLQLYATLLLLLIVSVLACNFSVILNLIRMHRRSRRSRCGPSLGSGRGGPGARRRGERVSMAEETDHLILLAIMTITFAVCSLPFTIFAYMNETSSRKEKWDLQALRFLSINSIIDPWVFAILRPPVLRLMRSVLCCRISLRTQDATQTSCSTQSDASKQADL

In the case of `Cc1sc(C)c(C(=O)NC2CC3(C2)CC(C(=O)O)C3)c1Cc1ccc(-c2ccc(F)c(C(=O)O)c2)cc1` (centres unmarked) [Example 37, 6-(4-((3′-carboxy-4′-fluoro-[1,1′-biphenyl]-4-yl)methyl)-2,5-dimethylthiophene-3-carboxamido)spiro[3.3]heptane-2-carboxylic acid], the IC50 on hEP2 was more than 10000 nM; at hEP4 it was 5000 to 10000 nM.

On to `Cc1ccccc1-c1ccc(Cc2c(C)sc(C)c2C(=O)NC2CC3(C2)CC(C(=O)O)C3)cc1` (centres unmarked) [Example 38, 6-(2,5-dimethyl-4-((2′-methyl-[1,1′-biphenyl]-4-yl)methyl)thiophene-3-carboxamido)spiro[3.3]heptane-2-carboxylic acid], for which the IC50 was more than 10000 nM at hEP2 and 500 to 5000 nM on hEP4.

For `Cc1sc(C)c(C(=O)NC2CC3(C2)CC(C(=O)O)C3)c1Cc1ccc(-c2cnn(C)c2)cc1` (centres unmarked) [Example 39, 6-(2,5-dimethyl-4-(4-(1-methyl-1H-pyrazol-4-yl)benzyl)thiophene-3-carboxamido)spiro[3.3]heptane-2-carboxylic acid], the IC50 at hEP2 is more than 10000 nM; at hEP4, 500 to 5000 nM.

As to `COc1ccc(-c2ccc(Cc3c(C)sc(C)c3C(=O)NC3CC4(C3)CC(C(=O)O)C4)cc2)cc1F` (centres unmarked) [Example 40, 6-(4-((3′-fluoro-4′-methoxy-[1,1′-biphenyl]-4-yl)methyl)-2,5-dimethylthiophene-3-carboxamido)spiro[3.3]heptane-2-carboxylic acid], the IC50 at hEP2 is 5000 to 10000 nM; on hEP4, less than 500 nM.

Take `COc1cc(C#N)cc(-c2ccc(Cc3c(C)sc(C)c3C(=O)NC3CC4(C3)CC(C(=O)O)C4)cc2)c1` (centres unmarked) [Example 41, 6-(4-((3′-cyano-5′-methoxy-[1,1′-biphenyl]-4-yl)methyl)-2,5-dimethylthiophene-3-carboxamido)spiro[3.3]heptane-2-carboxylic acid]: the figures for the IC50 at hEP2 and on hEP4 were 500 to 5000 nM and less than 500 nM, respectively.

For the molecule `Cc1sc(C)c(C(=O)NC2CC3(C2)CC(C(=O)O)C3)c1Cc1ccc(-c2ccc(OC(F)(F)F)cc2)cc1` (centres unmarked) [Example 42, 6-(2,5-dimethyl-4-((4′-(trifluoromethoxy)-[1,1′-biphenyl]-4-yl)methyl)thiophene-3-carboxamido)spiro[3.3]heptane-2-carboxylic acid], the IC50 is more than 10000 nM at hEP2 and 500 to 5000 nM at hEP4.

As to `Cc1sc(C)c(C(=O)NC2CC3(C2)CC(C(=O)O)C3)c1Cc1ccc(-c2cccc(F)c2)cc1` (centres unmarked) [Example 43, 6-(4-((3′-fluoro-[1,1′-biphenyl]-4-yl)methyl)-2,5-dimethylthiophene-3-carboxamido)spiro[3.3]heptane-2-carboxylic acid], the IC50 was 500 to 5000 nM at hEP2 and less than 500 nM on hEP4.

Turning to `Cc1sc(C)c(C(=O)NC2CC3(C2)CC(C(=O)O)C3)c1Cc1ccc(-c2cccc(C(F)(F)F)c2)cc1` (centres unmarked) [Example 44, 6-(2,5-dimethyl-4-((3′-(trifluoromethyl)-[1,1′-biphenyl]-4-yl)methyl)thiophene-3-carboxamido)spiro[3.3]heptane-2-carboxylic acid], the IC50 is 500 to 5000 nM at hEP2 and less than 500 nM on hEP4.

With `CCOc1cc(F)cc(-c2ccc(Cc3c(C)sc(C)c3C(=O)NC3CC4(C3)CC(C(=O)O)C4)cc2)c1` (centres unmarked) [Example 45, 6-(4-((3′-ethoxy-5′-fluoro-[1,1′-biphenyl]-4-yl)methyl)-2,5-dimethylthiophene-3-carboxamido)spiro[3.3]heptane-2-carboxylic acid], the IC50 on hEP2 is 500 to 5000 nM; at hEP4, less than 500 nM.

Consider `Cc1sc(C)c(C(=O)NC2CC3(C2)CC(C(=O)O)C3)c1Cc1ccc(-c2cc(F)cc(OC(C)C)c2)cc1` (centres unmarked) [Example 46, 6-(4-((3′-fluoro-5′-isopropoxy-[1,1′-biphenyl]-4-yl)methyl)-2,5-dimethylthiophene-3-carboxamido)spiro[3.3]heptane-2-carboxylic acid], for which the half-maximal inhibitory concentration (IC50) at hEP2 and at hEP4 was 500 to 5000 nM in each case.

Consider `COc1ccc(F)c(-c2ccc(Cc3c(C)sc(C)c3C(=O)NC3CC4(C3)CC(C(=O)O)C4)cc2)c1` (centres unmarked) [Example 47, 6-(4-((2′-fluoro-5′-methoxy-[1,1′-biphenyl]-4-yl)methyl)-2,5-dimethylthiophene-3-carboxamido)spiro[3.3]heptane-2-carboxylic acid], for which the results for the IC50 at hEP2 and on hEP4 were more than 10000 nM and 500 to 5000 nM, respectively.

Turning to `COc1ccc(F)cc1-c1ccc(Cc2c(C)sc(C)c2C(=O)NC2CC3(C2)CC(C(=O)O)C3)cc1` (centres unmarked) [Example 48, 6-(4-((5′-fluoro-2′-methoxy-[1,1′-biphenyl]-4-yl)methyl)-2,5-dimethylthiophene-3-carboxamido)spiro[3.3]heptane-2-carboxylic acid], the IC50 was more than 10000 nM on hEP2 and less than 500 nM on hEP4.

For `Cc1sc(C)c(C(=O)NC2CC3(C2)CC(C(=O)O)C3)c1Cc1ccc(-c2ccccc2F)cc1` (centres unmarked) [Example 49, 6-(4-((2′-fluoro-[1,1′-biphenyl]-4-yl)methyl)-2,5-dimethylthiophene-3-carboxamido)spiro[3.3]heptane-2-carboxylic acid], the IC50 at hEP2 and at hEP4 was more than 10000 nM each time.

Take `COc1cc(-c2ccc(Cc3c(C)sc(C)c3C(=O)NC3CC4(C3)CC(C(=O)O)C4)cc2)ccn1` (centres unmarked) [Example 50, 6-(4-(4-(2-methoxypyridin-4-yl)benzyl)-2,5-dimethylthiophene-3-carboxamido)spiro[3.3]heptane-2-carboxylic acid]: the figures for the IC50 on hEP2 and on hEP4 were more than 10000 nM and less than 500 nM, respectively.

As to `COc1cc(-c2ccc(Cc3c(C)sc(C)c3C(=O)NC3CC4(C3)CC(C(=O)O)C4)cc2)cc(C(F)(F)F)c1` (centres unmarked) [Example 51, 6-(4-((3′-methoxy-5′-(trifluoromethyl)-[1,1′-biphenyl]-4-yl)methyl)-2,5-dimethylthiophene-3-carboxamido)spiro[3.3]heptane-2-carboxylic acid], the values for the IC50 at hEP2 and on hEP4 were 500 to 5000 nM and less than 500 nM, respectively.

On to `Cc1sc(C)c(C(=O)NC2CC3(C2)CC(C(=O)O)C3)c1Cc1ccc(-c2cc(F)cc(F)c2)cc1` (centres unmarked) [Example 52, 6-(4-((3′,5′-difluoro-[1,1′-biphenyl]-4-yl)methyl)-2,5-dimethylthiophene-3-carboxamido)spiro[3.3]heptane-2-carboxylic acid], for which the IC50 on hEP2 was 5000 to 10000 nM; at hEP4 it was less than 500 nM.

For the molecule `COc1cc(OC)cc(-c2ccc(Cc3c(C)sc(C)c3C(=O)NC3CC4(C3)CC(C(=O)O)C4)cc2)c1` (centres unmarked) [Example 53, 6-(4-((3′,5′-dimethoxy-[1,1′-biphenyl]-4-yl)methyl)-2,5-dimethylthiophene-3-carboxamido)spiro[3.3]heptane-2-carboxylic acid], the IC50 on hEP2 is 500 to 5000 nM; at hEP4, less than 500 nM.

Turning to `Cc1sc(C)c(C(=O)NC2CC3(C2)CC(C(=O)O)C3)c1Cc1ccc(-c2cc(N)cc(F)c2)cc1` (centres unmarked) [Example 54, 6-(4-((3′-amino-5′-fluoro-[1,1′-biphenyl]-4-yl)methyl)-2,5-dimethylthiophene-3-carboxamido)spiro[3.3]heptane-2-carboxylic acid], the half-maximal inhibitory concentration (IC50) at hEP2 was 500 to 5000 nM; on hEP4, less than 500 nM.

As to `CSc1cc(F)cc(-c2ccc(Cc3c(C)sc(C)c3C(=O)NC3CC4(C3)CC(C(=O)O)C4)cc2)c1` (centres unmarked) [Example 55, 6-(4-((3′-fluoro-5′-(methylthio)-[1,1′-biphenyl]-4-yl)methyl)-2,5-dimethylthiophene-3-carboxamido)spiro[3.3]heptane-2-carboxylic acid], the IC50 is 500 to 5000 nM at hEP2 and less than 500 nM on hEP4.
